Measured values: publication PMC13270500, “Legacy 4(1H)‑Quinolone Scaffolds Activity against Acute and Chronic Toxoplasma gondii Infection” (ACS Infectious Diseases, 2026)

Experiments:
[1] = test system: ME49 R4 ATQ^R tachyzoites; assay: In vitro tachyzoite growth dose response, ATQ-resistant strain R4 (crystal violet); assay type: cell-based; details: Toxoplasma gondii, read-out: EC50 against R4 ATQ^R strain
[2] = test system: T. gondii RH (type I) tachyzoites; assay: In vitro tachyzoite growth dose response, RH-RFP (red fluorescence); assay type: cell-based; details: Toxoplasma gondii, RH-RFP type I wild-type, in vitro proliferation; read-out: EC50 against RH tachyzoites
Protocol: Experiments with T. gondii tachyzoites were carried out with parasites expressing a td-Tomato red fluorescent protein (RFP). , Parasites were purified by passing them through a 25-gauge needle, followed by filtration through a 5 μm filter. Human fibroblasts were cultured in 96-well black plates for 48 (hTERT) or 120 (HFF) hours before the addition of 4,000 fluorescent tachyzoites/well. […] Two technical replicates per concentration were used, and the experiment was repeated in three independent biological replicates. Fluorescence values were measured for up to 7 days, and both excitation (544 nm) and emission (590 nm) were read from the bottom of the plates in a BioTek Synergy H1 Hybrid plate reader. […] The EC50s were calculated using GraphPad Prism software version 10.

O=C1C(O)=C([C@H]2CC[C@H](c3ccc(Cl)cc3)CC2)C(=O)c2ccccc21 [ATQ, atovaquone]
EC50 [1]: 1870 nM | EC50 [2]: 14.1 nM
